Columns and labels:
inflammatory cytokines [1] = assay: Semiquantitative RT-PCR of cytokine mRNA, PMA/Ion stimulated peripheral blood lymphocytes; format: cell-based, human; settings: PBLs preincubated 2 hours, PMA/Ion 24 hours; FIGS. 12B, 13
Experimental: Monocyte and macrophage depleted peripheral blood mononuclear cells were obtained from consenting adults via separation using Ficoll-Hypaque. The peripheral blood mononuclear cells (PBMC) fraction was washed and seeded in 9 cm petri dishes. After an incubation of 2 hours at 37° C. to remove most of the monocytes, macrophages, and B-cells, the non-adherent cells were collected and cultured in 175 cm^2 flasks for 2 days. Cells were harvested and adjusted to 3 million cells per ml. Aliquots of 500 μl were transferred to each well of 24-well flat bottom plates. Peripheral blood lymphocytes (PBL's) were treated with various concentrations of HDAC inhibitors as indicated. After a 2 hours incubation time at 37° C. cells were stimulated with phorbol 12-myristate 13-acetate (PMA)/ionomycin (Ion) or activated via T cell receptor (TCR/CD3) complex with 10 μg/ml anti-CD3 mAb (OKT3) and 2.5 μg/ml anti-CD28 mAb. After 24 hours at 37° C. the supernatant was removed and frozen for cytokine assays. Cell pellets were lysed and total RNA was isolated using the RNeasy mini kit from Qiagen.
One microgram of total RNA was transcribed to cDNA by standard methods using reverse transcriptase and an oligo-dT primer (Invitrogen). For semiquantitative PCR, 2 μl of cDNA was amplified by PCR using specific primers. Primers for PCR were synthesized by MWG and are as follows: […]

inflammatory cytokines [2] = assay: RT-PCR of cytokine mRNA, blood cells of VPA treated patient stimulated with CD3/CD28; format: in vivo, human
Experimental: Total RNA from unstimulated and CD3/CD28 stimulated cells was isolated using the RNeasy mini kit (Qiagen). One microgram of total RNA was converted to cDNA by standard methods using reverse transcriptase and an oligo-dT primer (Invitrogen). For semiquantitative PCR, 2 μl of cDNA were amplified by PCR using the specific primers as described above (FIG. 19C).

[3] = test system: acetylated histones H3 and H4 and HDAC-2; assay: Western blot of peripheral blood cells from patients treated with VPA intravenously (Phase I/II study); format: in vivo, human; settings: before, 6 h, 24 h, 48 h after start, FIG. 18
Experimental: Whole cell extracts were prepared by lysis of cells in RIPA buffer including protease inhibitors. Lysates were separated by SDS gel electrophoresis and transferred onto PVDF membranes. Acetylated histones H3 and H4 and the marker gene HDAC-2 were detected by western blot analysis using an anti-acetylated H3 antibody (Upstate, #06-942), an anti-acetylated H4 antibody (clon T25; patent application EP 02.021984.6), and an anti-HDAC-2 antibody (SCBT, SC-7899). As an equal loading control PVDF membranes were stained with Coomassie (FIG. 18).

histone H4 acetylation = assay: Immunohistochemistry of acetylated H4 after topical application to BCC lesions of patients; format: in vivo, human; settings: VPA 3% (w/w) topically 16-20 hours before surgical excision vs placebo; FIG. 10
Experimental: Cryostat skin sections of 3 μm thickness were fixed in acetone at room temperature for 10 min. Before staining with anti-acetylated H4 antibody (clone T25, see above) the tissue was blocked by preincubation with F(ab′)2 fragments derived from goat anti-mouse immunoglobulin (Cappel) ( 1/10000 dilution in 50 mM Tris buffered saline, TBS) for 30 min. After rinsing with TBS for 10 min, the sections were incubated with anti-acetylated H4 antibody (clone T25) ( 1/4000 dilution in TBS) at room temperature for 1 hour. Then, the specimens were incubated with the rabbit anti-mouse serum and treated with APAAP (alkaline phosphatase anti-alkaline phosphatase) immunocomplex as described above. The positive staining was developed in red color with naphthol-AS-BI phosphate as a substrate, and New Fuchsin (Dako) as a chromogen. Pictures were taken with a digital camera connected to a light microscopy apparatus.
Skin biopsies were frozen in liquid nitrogen immediately after excision. Immunohistochemistry was then performed on 3 μm sections as described in methods. Biopsies of skin topically treated with Placebo or VPA were processed in parallel, pictures were taken with a light microscopy apparatus connected to a digital camera under the same light intensity.

[4] = In vitro skin permeation assay, Franz type diffusion cell with SCE membranes; format: in vitro ADME, human; settings: sodium valproate 3% (w/w) in Sepigel gel, SCE membranes 0.75 cm^2, 10 h, 35° C.; FIG. 6
Experimental: The resulting gel was stored at room temperature for 24 h prior to use.
In vitro skin permeation assay: The analyses were carried out using a Franz type glass diffusion cell (LGA, Berkeley, Calif., USA) assembled with membranes carrying stratum corneum and epidermis (SCE). Adult human skin samples (mean age 29±5 years) were obtained from abdominal reduction surgery. Subcutaneous fat was trimmed and the skin samples were immersed in distilled water at 60° C. for 1 min; then stratum corneum and epidermis (SCE) were peeled off The SCE samples were dried at room temperature in a desiccator maintained at approximately 25% relative humidity. […] Skin barrier integrity of the SCE membranes used in this protocol was assessed by determining their tritiated water permeability coefficient (Kp). […] All samples were analyzed for sodium valproate contents by means of an HPLC with spectrofluorimetric detection. The results were expressed as total amount permeated (mg).
Quantitative determination of Sodium Valproate: To determine sodium valproate, samples were derivatized with 4-bromomethyl-7-methoxycoumarin (BMMC). […]
Adult human skin samples (skin surface area was 0.75 cm^2) were prepared as described in the methods section. […] All samples were analyzed for sodium valproate contents by means of an HPLC with spectrofluorimetric detection. The results were expressed as total amount permeated (mg).

mouse embryos = settings: mice, when properly dosed; cited from earlier work
[5] = starting at 24 hours of VPA treatment

SMILES: CCCC(CCC)C(=O)O [VPA, 2-propyl-pentanoic acid]
- IL-4 mRNA transcripts (inflammatory cytokines [1]): significantly reduced
- IL-6 mRNA transcripts (inflammatory cytokines [1]): decreased IL-6 mRNA back to the level seen in the unstimulated sample
- IL-2 mRNA transcripts (inflammatory cytokines [2]; CD3/CD28 stimulated): decrease
- TNF-α mRNA transcripts (inflammatory cytokines [2]; CD3/CD28 stimulated): decrease
- IFN-γ mRNA expression (inflammatory cytokines [2]; [5]): significantly reduced
- IL-4 mRNA expression (inflammatory cytokines [2]; [5]): significantly reduced
- HDAC-2 protein in peripheral blood cells [3]: down-regulation of the marker protein HDAC-2
- histone H3 and H4 acetylation in peripheral blood cells [3]: Histone H3 and H4 hyperacetylation
- histone H4 acetylation in BCC cells and normal skin cells of patients (histone H4 acetylation): clear increase of histone H4 acetylation
- permeation of human skin (total amount permeated) [4]: permeates the skin in a time dependent manner
- teratogenicity (mouse embryos): teratogenic in the majority of mouse embryos

— US20060160897A1, “Topical Use of Valproic Acid for the Prevention or Treatment of Skin Disorders” (priority 2003, published 2006)
